# Experimental data reported in US20050228188A1, “Astaxanthin medium-chain fatty acid ester, process for producing the same and composition containing the ester” (Suntory Limited, priority 2002, published 2005).
# Experiment: Digestibility of astaxanthins in rats: astaxanthin content in blood plasma and liver by HPLC after oral administration
# Details: for digestibility (content of astaxanthin in blood plasma and liver) compared with astaxanthin extracted from Haematococcus (Astax9000H): rat, in vivo, po, 100 mg/kg
# Description: Using a commercially available astaxanthin extracted from Chlorophyceae of Haematococcus (Itano, product name: Astax9000H) and astaxanthins mono- and di-esterified with a medium-chain fatty acid (Asta-C8-monoester and Asta-C8-diester), the digestibility of these astaxanthins was studied using rats. For the experiment, these astaxanthins were diluted with olive oil so as to obtain a ratio of 100 mg/kg in the conversion of a free astaxanthin, and the diluted astaxanthins were administered to rats (Wister rat). The content of astaxanthin contained in the blood (blood plasma) and the liver of each rat was measured using HPLC. The blood and liver were sampled at 3, 5, 7 and 10 hours after the administration.
digestibility (content of astaxanthin in blood plasma and liver) compared with astaxanthin extracted from Haematococcus (Astax9000H),"digestibility, rank among the astaxanthins tested (rats, oral, 100 mg/kg in conversion of free astaxanthin, blood plasma and liver at 3, 5, 7 and 10 hours)",SMILES
much better digestibility,,"CCCCCCCC(=O)O[C@H]1CC(C)(C)C(/C=C/C(C)=C/C=C/C(C)=C/C=C/C=C(C)/C=C/C=C(C)/C=C/C2=C(C)C(=O)[C@@H](OC(=O)CCCCCCC)CC2(C)C)=C(C)C1=O [Asta-C8-diester, astaxanthin octanoic acid diester]"
much better digestibility,most digested,"CCCCCCCC(=O)OC1CC(C)(C)C(C=CC(C)=CC=CC(C)=CC=CC=C(C)C=CC=C(C)C=CC2=C(C)C(=O)C(O)CC2(C)C)=C(C)C1=O (stereo not drawn) [Asta-C8-monoester, astaxanthin octanoic acid monoester]"
